# Patent US12110295B2, “WD40 repeat domain protein 5 (WDR5) degradation/disruption compounds and methods of use” (Icahn School of Medicine at Mount Sinai, priority 2018, dated 2024)
# Biological target: WDR5 (Homo sapiens, UniProt P61964)
# Experiment: Screening of putative WDR5 degraders by Western blot in MV4;11 and/or MIAPACA2 cells
# Assay type: cell-based
# Parameters: After WDR5 degrader treatment, cells were collected and lysed; endogenous in cells; host or cells: MV4;11 and/or MIAPACA2
# Settings: summary of screening, FIGS. 6-10
# Method: MV4;11 cells were treated with DMSO or indicated compounds at 0.1 μM and 0.5 μM for 18 hours. […]. MIAPACA2 cells were treated with DMSO or indicated compounds at 0.5 μM and 1.0 μM for 18 hours.
# MIAPACA2 cells were treated with DMSO or indicated compounds at 0.1 μM and 0.5 μM for 18 hours.
# MIAPACA2 cells were treated with DMSO or indicated compounds at 0.5 μM and 1.0 μM or at 1.0 μM and 10 μM for 18 hours.
# MV4;11 cells were treated with DMSO or indicated compounds at 0.1 μM and 1.0 μM for 18 hours.
# WDR5 degraders were dissolved in DMSO and DMSO with no degraders was used as the control. 1×10^6 MV4;11 cells or 1×10^5 MIAPACA2 or 2×10^5 Hela cells were seeded in 2 mL medium for each well in […].
# For prescreening of all the compounds, each test compound was added to the medium at indicated concentrations. After 18 h treatment, cells were collected.
# After WDR5 degrader treatment, cells were collected and lysed. Total cell lysates were used for western blot. The following primary antibodies were used: WDR5 (Santa Cruz), vinculin (Cell Signaling Technology), tubulin (Cell Signaling Technology), GAPDH (Santa Cruz). Blots were imaged using fluorescence-labeled secondary antibodies on ChemiDoc™ Imaging Systems.
row,SMILES,effective degradation of WDR5 in MV4;11 and/or MIAPACA2 cells
1,"C[C@@H]1CN(c2ccc(-c3ccc(C(=O)NCCCCCCCCNc4cccc5c4C(=O)N(C4CCC(=O)NC4=O)C5=O)cc3F)cc2NC(=O)c2c[nH]c(=O)cc2C(F)(F)F)C[C@H](C)N1C (stereo partly drawn) [XF056-186, N-(4′-((8-((2-(2,6-dioxopiperidin-3-yl)-1,3-dioxoisoindolin-4-yl)amino)octyl)carbamoyl)-2′-fluoro-4-((3R,5S)-3,4,5-trimethylpiperazin-1-yl)-[1,1′-biphenyl]-3-yl)-6-oxo-4-(trifluoromethyl)-1,6-dihydropyridine-3-carboxamide]",able to effectively degrade WDR5
2,"Cc1ncsc1-c1ccc(CNC(=O)[C@@H]2C[C@@H](O)CN2C(=O)[C@@H](NC(=O)CCCCCCCCCCCC(=O)NCCN2CCN(Cc3cccc(-c4ccc(N5CCN(C)CC5)c(NC(=O)c5c[nH]c(=O)cc5C(F)(F)F)c4)c3)CC2)C(C)(C)C)cc1 [XF050-161, N^1-((S)-1-((2S,4R)-4-hydroxy-2-((4-(4-methylthiazol-5-yl)benzyl)carbamoyl)pyrrolidin-1-yl)-3,3-dimethyl-1-oxobutan-2-yl)-N^13-(2-(4-((4′-(4-methylpiperazin-1-yl)-3′-(6-oxo-4-(trifluoromethyl)-1,6-dihydropyridine-3-carboxamido)-[1,1′-biphenyl]-3-yl)methyl)piperazin-1-yl)ethyl)tridecanediamide]",able to effectively degrade WDR5
3,"C[C@@H]1CN(c2ccc(-c3cc(CN4CCN(CCNC(=O)CCCCCNc5cccc6c5C(=O)N(C5CCC(=O)NC5=O)C6=O)CC4)ccc3F)cc2NC(=O)c2c[nH]c(=O)cc2C(F)(F)F)C[C@H](C)N1C (stereo partly drawn) [XF078-22, N-(5′-((4-(2-(6-((2-(2,6-dioxopiperidin-3-yl)-1,3-dioxoisoindolin-4-yl)amino)hexanamido)ethyl)piperazin-1-yl)methyl)-2′-fluoro-4-((3S,5R)-3,4,5-trimethylpiperazin-1-yl)-[1,1′-biphenyl]-3-yl)-6-oxo-4-(trifluoromethyl)-1,6-dihydropyridine-3-carboxamide]",able to effectively degrade WDR5
4,"C[C@@H]1CN(c2cc(F)c(C3=CCN(c4ncc(CN5CCN(C(=O)CCOCCOCCOCCOCCOCCNc6cccc7c6C(=O)N(C6CCC(=O)NC6=O)C7=O)CC5)cn4)CC3)cc2NC(=O)c2c[nH]c(=O)cc2C(F)(F)F)C[C@H](C)N1C (stereo partly drawn) [XF078-160, N-(5-(1-(5-((4-(1-((2-(2,6-dioxopiperidin-3-yl)-1,3-dioxoisoindolin-4-yl)amino)-3,6,9,12,15-pentaoxaoctadecan-18-oyl)piperazin-1-yl)methyl)pyrimidin-2-yl)-1,2,3,6-tetrahydropyridin-4-yl)-4-fluoro-2-((3S,5R)-3,4,5-trimethylpiperazin-1-yl)phenyl)-6-oxo-4-(trifluoromethyl)-1,6-dihydropyridine-3-carboxamide]",able to effectively degrade WDR5
5,"Cc1ncsc1-c1ccc(CNC(=O)[C@@H]2C[C@@H](O)CN2C(=O)[C@@H](NC(=O)CCOCCOCCC(=O)N2CCN(c3ncc(-c4cc(NC(=O)c5ccc(F)cc5C(F)(F)F)c(N5C[C@@H](C)N(C)[C@@H](C)C5)cc4F)cn3)CC2)C(C)(C)C)cc1 [XF078-102, (2S,4R)-1-((S)-2-(3-(2-(3-(4-(5-(2-fluoro-5-(4-fluoro-2-(trifluoromethyl)benzamido)-4-((3S,5R)-3,4,5-trimethylpiperazin-1-yl)phenyl)pyrimidin-2-yl)piperazin-1-yl)-3-oxopropoxy)ethoxy)propanamido)-3,3-dimethylbutanoyl)-4-hydroxy-N-(4-(4-methylthiazol-5-yl)benzyl)pyrrolidine-2-carboxamide]",able to effectively degrade WDR5
6,"Cc1ncsc1-c1ccc(CNC(=O)[C@@H]2C[C@@H](O)CN2C(=O)[C@@H](NC(=O)CCCCCCCC(=O)N2CCN(Cc3cnc(N4CC=C(c5cc(NC(=O)c6c[nH]c(=O)cc6C(F)(F)F)c(N6C[C@@H](C)N(C)[C@@H](C)C6)cc5F)CC4)nc3)CC2)C(C)(C)C)cc1 [XF078-146, N-(4-fluoro-5-(1-(5-((4-(9-(((S)-1-((2S,4R)-4-hydroxy-2-((4-(4-methylthiazol-5-yl)benzyl)carbamoyl)pyrrolidin-1-yl)-3,3-dimethyl-1-oxobutan-2-yl)amino)-9-oxononanoyl)piperazin-1-yl)methyl)pyrimidin-2-yl)-1,2,3,6-tetrahydropyridin-4-yl)-2-((3S,5R)-3,4,5-trimethylpiperazin-1-yl)phenyl)-6-oxo-4-(trifluoromethyl)-1,6-dihydropyridine-3-carboxamide]",able to effectively degrade WDR5
7,"Cc1ncsc1-c1ccc(CNC(=O)[C@@H]2C[C@@H](O)CN2C(=O)[C@@H](NC(=O)CCOCCOCCOCCC(=O)NCCN2CCN(Cc3ccc(F)c(-c4ccc(N5C[C@@H](C)N(C)[C@@H](C)C5)c(NC(=O)c5c[nH]c(=O)cc5C(F)(F)F)c4)c3)CC2)C(C)(C)C)cc1 [XF078-6, N-(2′-fluoro-5′-((4-((S)-18-((2S,4R)-4-hydroxy-2-((4-(4-methylthiazol-5-yl)benzyl)carbamoyl)pyrrolidine-1-carbonyl)-19,19-dimethyl-4,16-dioxo-7,10,13-trioxa-3,17-diazaicosyl)piperazin-1-yl)methyl)-4-((3S,5R)-3,4,5-trimethylpiperazin-1-yl)-[1,1′-biphenyl]-3-yl)-6-oxo-4-(trifluoromethyl)-1,6-dihydropyridine-3-carboxamide]",able to effectively degrade WDR5
8,"Cc1ncsc1-c1ccc(CNC(=O)[C@@H]2C[C@@H](O)CN2C(=O)[C@@H](NC(=O)COCC(=O)N2CCN(Cc3cnc(N4CC=C(c5cc(NC(=O)c6c[nH]c(=O)cc6C(F)(F)F)c(N6C[C@@H](C)N(C)[C@@H](C)C6)cc5F)CC4)nc3)CC2)C(C)(C)C)cc1 [XF078-132, N-(4-fluoro-5-(1-(5-((4-(2-(2-(((S)-1-((2S,4R)-4-hydroxy-2-((4-(4-methylthiazol-5-yl)benzyl)carbamoyl)pyrrolidin-1-yl)-3,3-dimethyl-1-oxobutan-2-yl)amino)-2-oxoethoxy)acetyl)piperazin-1-yl)methyl)pyrimidin-2-yl)-1,2,3,6-tetrahydropyridin-4-yl)-2-((3S,5R)-3,4,5-trimethylpiperazin-1-yl)phenyl)-6-oxo-4-(trifluoromethyl)-1,6-dihydropyridine-3-carboxamide]",able to effectively degrade WDR5
9,"Cc1ncsc1-c1ccc(CNC(=O)[C@@H]2C[C@@H](O)CN2C(=O)[C@@H](NC(=O)CCCCCCCC(=O)N2CC=C(c3cc(NC(=O)c4c[nH]c(=O)cc4C(F)(F)F)c(N4C[C@@H](C)N(C)[C@@H](C)C4)cc3F)CC2)C(C)(C)C)cc1 [XF078-44, N-(4-fluoro-5-(1-(9-(((S)-1-((2S,4R)-4-hydroxy-2-((4-(4-methylthiazol-5-yl)benzyl)carbamoyl)pyrrolidin-1-yl)-3,3-dimethyl-1-oxobutan-2-yl)amino)-9-oxononanoyl)-1,2,3,6-tetrahydropyridin-4-yl)-2-((3S,5R)-3,4,5-trimethylpiperazin-1-yl)phenyl)-6-oxo-4-(trifluoromethyl)-1,6-dihydropyridine-3-carboxamide]",able to effectively degrade WDR5
